{"source": "patent US9320760B2", "about": "“Compositions and methods of use of compounds to increase cancer patient survival time” (BioNumerik Pharmaceuticals, Inc., priority 2008, dated 2016)", "key": {"[1]": {"molecular_target": "T1, Thioredoxin Reductase + Thioredoxin (Bos taurus, UniProt O97680)", "T1 sequence (O97680 1-105)": "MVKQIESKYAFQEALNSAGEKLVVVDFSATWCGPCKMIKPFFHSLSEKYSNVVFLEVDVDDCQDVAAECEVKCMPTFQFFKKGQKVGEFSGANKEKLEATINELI", "assay": "NADPH oxidation at 340 nm, coupled thioredoxin (TX)/thioredoxin reductase (TXR)/NADPH system", "format": "biochemical, bovine", "description": "Biochemistry 21:6628-6633 (1982).\nData was then collected and plotted in Microsoft Excel. Error calculations, and graphical representations were performed in Microsoft Excel and Kaleidograph (ver. 3.5). Nonlinear data was graphically rendered using Kaleidograph. ANOVA and other statistical analyses were performed using SAS (ver. 8.2). Unless otherwise noted, significance level was set at 0.05, and error bars represent actual experimental standard deviation.\nIt should be noted that for the purposes of FIG. 17 only, thioredoxin is labeled TXR and thioredoxin reductase is labeled TRR.\nTable 4, below, illustrates that various Formula (I) compounds (i.e., disulfide-containing compounds) of the present invention can serve as alternate substrate inhibitors for the coupled thioredoxin (TX)/thioredoxin reductase (TXR)/NADPH system as measured by the oxidation of NADPH. In Table 4, the Formula (I) compounds were utilized at a concentration of 0.5 mM."}, "[2]": {"tested_on": "non-small cell lung carcinoma (NSCLC) cell lines", "assay": "cytotoxicity study in combination with chemotherapeutic agents, NSCLC cell lines", "format": "cell-based, human", "settings": "Tavocept in combination with cisplatin vs cisplatin only controls"}, "breast cancer cell lines": {"tested_on": "breast cancer cell lines", "assay": "cytotoxicity study in combination with cisplatin, breast cancer cell lines", "format": "cell-based, human", "settings": "Tavocept in combination with cisplatin vs cisplatin only controls"}, "[3]": {"molecular_target": "T2, glutathione reductase (GR) (Homo sapiens, UniProt P00390)", "T2 sequence (P00390 44-522)": "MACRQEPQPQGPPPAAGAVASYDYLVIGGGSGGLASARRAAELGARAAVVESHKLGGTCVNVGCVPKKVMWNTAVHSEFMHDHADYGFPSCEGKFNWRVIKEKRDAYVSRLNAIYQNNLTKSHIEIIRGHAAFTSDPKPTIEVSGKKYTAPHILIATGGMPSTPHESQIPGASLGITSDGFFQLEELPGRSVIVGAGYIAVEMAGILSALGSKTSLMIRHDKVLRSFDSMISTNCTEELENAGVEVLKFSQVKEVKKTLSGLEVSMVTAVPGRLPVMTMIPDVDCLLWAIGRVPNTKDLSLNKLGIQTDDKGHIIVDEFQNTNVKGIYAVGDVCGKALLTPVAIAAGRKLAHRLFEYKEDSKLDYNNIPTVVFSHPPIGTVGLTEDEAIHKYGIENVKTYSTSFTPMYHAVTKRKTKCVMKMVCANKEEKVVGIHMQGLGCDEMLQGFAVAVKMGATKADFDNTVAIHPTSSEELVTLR", "assay": "NADPH oxidation, glutathione reductase (GR) alone", "format": "biochemical", "description": "(§1) The Formula (I) compound was utilized at a concentration of 0.5 mM."}, "[4]": {"assay": "interference with paclitaxel and platinum regimens in animal models", "format": "in vivo", "source_text": "(§2) An important element of Tavocept's™ effectiveness as a compound in the treatment of cancer is its selectivity for normal cells versus cancer cells and its inability to interfere with the anti-cancer activity of chemotherapeutic agents."}, "[5]": {"tested_on": "patients with advanced stage (IIIB/IV) non-small cell lung carcinoma (NSCLC), including the adenocarcinoma sub-type", "assay": "U.S. Phase II NSCLC Clinical Trial (dose-dense docetaxel + cisplatin with or without Tavocept)", "format": "in vivo, human", "description": "Darbepoetin alfa (200 μg; subcutaneous administration) was administered on day one of the chemotherapy cycle and pegfilgrastim (6 mg subcutaneous administration) was administered on day two of the chemotherapy cycle if the patient's hemoglobin levels were ≦11 g/dL. The aforementioned chemotherapy cycle was repeated every two weeks, for up to a total of six cycles."}, "[6]": {"tested_on": "patients with advanced non-small cell lung carcinoma (NSCLC), including the adenocarcinoma sub-type", "assay": "Japan Phase III Clinical Trial (paclitaxel + cisplatin with Tavocept or placebo)", "format": "in vivo, human", "description": "Patients admitted into the trial included those patients without previous treatment (excluding surgical treatment, administration of Picibanil into the serous membrane, irradiation of 30% or less hematopoietic bone, or oral chemotherapeutic agents within 3 months of entry in the trial).\nThe Japan Phase III Clinical Trial was conducted as a double-blind study because peripheral neuropathy is diagnosed based on subjective symptoms evaluated through clinical interviews, lab tests, and the like. Accordingly, evaluations by both physicians and patients are highly important. […] A placebo was used as control since there is no established therapy or drug for preventing peripheral neuropathy. Because the severity of peripheral neuropathy is evaluated based on patient's reports (i.e., subjective symptoms), the Peripheral Neuropathy Questionnaire (PNQ©) was used in primary evaluation. CIPN-20 and NCI-CTC were used in secondary evaluation. The incidence and severity of adverse reactions, time to their onset, etc. and the like, were compared between patients treated with Tavocept™ and those given a placebo using the aforementioned methods."}, "GR + GSH": {"molecular_target": "T3, GR + GSH (Homo sapiens, UniProt P00390)", "T3 sequence (P00390 44-522)": "T2 sequence (P00390 44-522)", "assay": "NADPH oxidation, GR + GSH", "format": "biochemical", "settings": "Disulfide 0.5 mM; n = 6", "description": "as §1"}, "[7]": {"molecular_target": "T4, GR + GRX + GSH (coupled glutaredoxin/glutathione/glutathione reductase system) (Homo sapiens, UniProt P35754)", "T4 sequence (P35754 1-106)": "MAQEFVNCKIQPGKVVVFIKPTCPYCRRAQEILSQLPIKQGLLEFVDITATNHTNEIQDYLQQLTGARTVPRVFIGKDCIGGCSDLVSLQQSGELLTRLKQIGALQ", "assay": "NADPH oxidation, coupled GRX/GSH/GR system", "format": "biochemical", "description": "as §1"}, "[8]": {"tested_on": "human breast, ovarian and lymphoma cancer cell lines", "assay": "interference with paclitaxel induced apoptosis (PARP cleavage, Bcl-2 phosphorylation, DNA laddering)", "format": "cell-based", "settings": "in vitro", "source_text": "as §2"}, "whole cells": {"tested_on": "whole cells", "assay": "whole cell mediated disulfide reduction (α-lipoic acid, hydroxyethyldisulfide)", "format": "cell-based", "settings": "treatments with paclitaxel, cisplatin and Tavocept"}, "[9]": {"settings": "FIG. 13, Tavocept arm versus non-Tavocept arm"}, "[10]": {"settings": "FIG. 14, adenocarcinoma patients, Tavocept vs non-Tavocept arm"}, "[11]": {"settings": "FIG. 15, Tavocept arm versus non-Tavocept arm"}, "[12]": {"settings": "adenocarcinoma patients in the Tavocept arm"}, "[13]": {"settings": "FIG. 7, Tavocept arm (5 in the placebo arm)"}}}
{"smiles": "O=S(=O)([O-])CCSSCCS(=O)(=O)[O-].[Na+].[Na+]", "note": "[Tavocept™, disodium 2,2′-dithio-bis-ethane sulfonate]", "values": [{"measurement": "NADPH Oxidation, Thioredoxin Reductase + Thioredoxin", "setting": "[1]; Disulfide 0.5 mM, minimum of triplicate assays", "result": "13.1 ± 0.2", "unit": "nmol/min/mL"}, {"measurement": "NADPH oxidation by TXR in the presence of TX", "setting": "[1]; FIG. 17, increasing Tavocept concentration", "result": "concentration-dependent increase"}, {"measurement": "oxidation of reduced thioredoxin to oxidized thioredoxin", "setting": "[1]; result in words", "result": "drives the oxidation"}, {"measurement": "cell death", "setting": "[2]", "result": "increase in cell death"}, {"measurement": "cell death", "setting": "breast cancer cell lines", "result": "increase in cell death"}, {"measurement": "NADPH Oxidation, GR", "setting": "[3]; Disulfide 0.5 mM, n = 6", "result": "0.0 ± 0.01", "unit": "nmol/min/mL"}, {"measurement": "substrate / alternative substrate inhibitor for glutathione reductase", "setting": "[3]; result in words", "result": "not a substrate"}, {"measurement": "interference with paclitaxel and platinum regimens", "setting": "[4]", "result": "did not interfere"}, {"measurement": "median patient survival (time to death)", "setting": "[5]; FIG. 12, NSCLC incl. adenocarcinoma, Tavocept arm (10.74 months non-Tavocept arm), 95% confidence limit", "result": 11.66, "unit": "months"}, {"measurement": "hazard ratio, survival", "setting": "[5]; FIG. 12, NSCLC incl. adenocarcinoma, Tavocept vs non-Tavocept arm", "result": 0.750}, {"measurement": "increase in patient survival", "setting": "[5]; FIG. 12, NSCLC, Tavocept arm versus non-Tavocept arm", "result": 0.92, "unit": "month"}, {"measurement": "patient progression-free survival (PFS)", "setting": "[5]; FIG. 13, Tavocept arm (9.25% non-Tavocept arm), 95% confidence interval", "result": 18.7, "unit": "%"}, {"measurement": "overall patient one-year survival (OS) rate", "setting": "[5]; FIG. 13, Tavocept arm (39.5% non-Tavocept arm), 95% confidence interval", "result": 50.7, "unit": "%"}, {"measurement": "increase in overall patient one-year survival (OS) rates", "setting": "[5]; [9]", "result": 11.2, "unit": "%"}, {"measurement": "increase in patient progression-free survival (PFS)", "setting": "[5]; [9]", "result": 9.5, "unit": "%"}, {"measurement": "median patient survival (time to death), adenocarcinoma", "setting": "[5]; FIG. 14, adenocarcinoma patients, Tavocept arm (9.10 months non-Tavocept arm), 95% confidence limit", "result": 15.64, "unit": "months"}, {"measurement": "increase in patient survival, adenocarcinoma", "setting": "[5]; FIG. 14, adenocarcinoma patients, Tavocept arm versus non-Tavocept arm", "result": 6.54, "unit": "months"}, {"measurement": "increase in patient survival, adenocarcinoma", "setting": "[5]; FIG. 14, adenocarcinoma patients, Tavocept arm versus non-Tavocept arm, listed as Tavocept", "result": "~6.5", "unit": "months"}, {"measurement": "hazard ratio, survival, adenocarcinoma", "setting": "[5]; [10]", "result": 0.601}, {"measurement": "reduction in the patient mortality rate, adenocarcinoma", "setting": "[5]; [10]", "result": 40, "unit": "%"}, {"measurement": "reduction in dehydration (Grade 3 and Grade 4 treatment-related adverse events)", "setting": "[5]; [11]", "result": 50, "unit": "%"}, {"measurement": "reduction in hypomagnesaemia (Grade 3 and Grade 4 treatment-related adverse events)", "setting": "[5]; [11]", "result": 100, "unit": "%"}, {"measurement": "reduction in nausea (Grade 3 and Grade 4 treatment-related adverse events)", "setting": "[5]; [11]", "result": 38.5, "unit": "%"}, {"measurement": "reduction in vomiting (Grade 3 and Grade 4 treatment-related adverse events)", "setting": "[5]; [11]", "result": 71.5, "unit": "%"}, {"measurement": "increase in median survival time, adenocarcinoma patients", "setting": "[5]; [12]", "result": "approximately 198 days"}, {"measurement": "reduction in severe (Grade D or E) peripheral neuropathy (PNQ, Primary Endpoint)", "setting": "[6]; FIG. 5, paclitaxel/Tavocept/cisplatin regimen vs paclitaxel/saline placebo/cisplatin regimen, NSCLC patients", "result": "~50", "unit": "%"}, {"measurement": "patients with Grade 3 (severe) decrease in hematocrit levels", "setting": "[6]; [13]", "result": 1, "unit": "patients"}, {"measurement": "patients with Grade 3 (severe) decrease in red blood cell levels", "setting": "[6]; [13]", "result": 1, "unit": "patients"}, {"measurement": "patients with Grade 3 (severe) decrease in hemoglobin", "setting": "[6]; FIG. 7, Tavocept arm (8 in the placebo arm)", "result": 2, "unit": "patients"}, {"measurement": "response rate as measured by the IRC", "setting": "[6]; FIG. 8, Tavocept arm (28.6% in the placebo arm)", "result": 33.3, "unit": "%"}, {"measurement": "Response Rate, as measured by physicians (Doctor)", "setting": "[6]; FIG. 8, Tavocept arm (33.0% in the placebo arm)", "result": 41.9, "unit": "%"}, {"measurement": "increase in median survival time", "setting": "[6]; FIG. 9, NSCLC patients incl. adenocarcinoma, paclitaxel/Tavocept/cisplatin vs paclitaxel/saline placebo/cisplatin", "result": "up to 40 days"}, {"measurement": "survival period, female patient population", "setting": "[6]; FIG. 10, female NSCLC patients, paclitaxel/Tavocept/cisplatin vs paclitaxel/saline placebo/cisplatin", "result": "longer survival period"}, {"measurement": "increase in median survival time, adenocarcinoma patients", "setting": "[6]; FIG. 11, adenocarcinoma sub-type, paclitaxel/Tavocept/cisplatin vs paclitaxel/saline placebo/cisplatin", "result": "up to 138 days"}, {"measurement": "increase in median survival time, adenocarcinoma patients", "setting": "[6]; FIG. 11, adenocarcinoma sub-type, paclitaxel/Tavocept/cisplatin vs paclitaxel/saline placebo/cisplatin, listed as Tavocept", "result": "approximately 138 days"}, {"measurement": "chemotherapy-induced vomiting/emesis and kidney damage", "setting": "[6]; Tavocept and chemotherapy vs chemotherapy and placebo, result in words", "result": "medically-important reductions"}, {"measurement": "increase in median survival time, adenocarcinoma patients", "setting": "[6]; [12]", "result": "~4.5", "unit": "months"}, {"measurement": "NADPH Oxidation, GR + GSH", "setting": "GR + GSH", "result": "2.9 ± 1.6", "unit": "nmol/min/mL"}, {"measurement": "NADPH Oxidation, GR + GRX + GSH", "setting": "[7]; Disulfide 0.5 mM, n = 6", "result": "15.3 ± 1.0", "unit": "nmol/min/mL"}, {"measurement": "substrate-like activity with glutaredoxin / alternative substrate inhibitor for the coupled GRX/GSH/GR system", "setting": "[7]; in the presence of reduced glutathione and glutathione reductase, result in words", "result": "exhibits substrate-like activity"}, {"measurement": "interference with paclitaxel induced apoptosis", "setting": "[8]", "result": "does not interfere"}, {"measurement": "whole cell mediated disulfide reduction", "setting": "whole cells", "result": "declined"}]}
